Data on 18 compounds can be found in patent publication US10442793B2, “Oxa spiro derivative, preparation method therefor, and applications thereof in medicines” (Jiangsu Hengrui Medicine Co., Ltd., priority 2015, dated 2019).

Common to all, as to assay type: cell-based
One assay deals with T1, MOR receptor (Homo sapiens, UniProt P35372).
T1 construct: host or cells: CHO-K1
The assay is described as follows: Activation of the β-arrestin signaling pathway of MOR receptor (CHO-K1 OPRM1 β-Arrestin cells, DiscoveRX). The note with it: for Emax: maximum effect of morphine is 100%. The procedure:
The experiment objective is to determine the activity of the compounds of the present invention on activating the β-arrestin signaling pathway of MOR receptor.
The drug was prepared as a 20 mM stock solution that was later diluted with 100% DMSO to a 200×concentration gradient, and then diluted with a 20-fold AssayComplete™ Cell Plating 2 Reagent (93-0563R2B, DiscoveRX) medium. The cell culture plate inoculated on the first day was taken out, and 10 μl of the diluted drug or control (0.5% DMSO) was added to each well. The plate was gently shaken and placed in an incubator at 37° C., 5% CO2 for 90 minutes. Finally, 50 μL of a detection reagent (93-0001, DiscoveRX) were added to each well, and the plate was placed at room temperature for 60 minutes. The absorbance values were measured by the cold light model of a microplate reader (PE, Victor3). The EC50 values of the compounds were calculated by Graphpad Prism software according to each concentration of the compound and the corresponding signal value.

Another assay deals with T2, μ-opioid receptors (MOR) (Homo sapiens, UniProt P35372).
T2 construct: host or cells: HEK293
In words: MOR activity test: HEK293/MOR/CRE luciferase reporter, agonizing MOR and affecting downstream cAMP levels. The note with it: for Emax: HEK293, maximum effect of TRV-130 is 100%, read-out: Emax on agonizing MOR receptor and affecting cAMP levels. The source says: The compounds of the present invention can activate μ-opioid receptors (MOR). Activated MOR can regulate intracellular cAMP levels, and cAMP enters the nucleus and binds to the CRE region of the reporter gene luciferase, thereby initiating the expression of the reporter gene. Luciferase can react with its substrate to emit fluorescence, and the measured fluorescence signals reflect the agonistic activity of the compounds.
The activity of the test example compounds on agonizing MOR and affecting downstream cAMP levels was tested by the following method.
MOR/pcDNA3.1 (+) and CRE/pGL4.29 were transferred into HEK293 cells. G418 and hygromycin were added into the culture medium, and HEK293/MOR/CRE monoclonal cell lines were screened in a 96-well cell culture plate.
HEK293/MOR/CRE monoclonal cells were cultured in a DMEM/high glucose medium (10% FBS, 1 mg/ml G418, 200 μg/ml hygromycin, mixed uniformly), and passaged every 3 days. On the day of the experiment, a cell suspension was prepared with a fresh cell medium, added to a 96 well plate (BD, #356692) with 20,000 cells/well, and incubated in 5% CO2 at 37° C. On the second day, the compound was dissolved in pure DMSO at a concentration of 20 mM, then formulated with DMSO to a first concentration of 4 mM and diluted in 10 fold concentration gradient to 6 concentrations. Then, 90 μl of DMSO was added to blank and control wells. Then, formulated compound was prepared by adding 2.5 μl of the compound solutions formulated in DMSO at a gradient concentration to 97.5 μl of a fresh cell culture medium containing 5 μM foscolin. Then, 10 μl of the formulated compound was added to the cell culture plate to make the final concentration of the compound 10000, 1000, 100, 10, 1, 0.1, or 0.01 nM, and the plate was incubated at 37° C., in 5% CO2 for 5 hours. In a 96-well cell culture plate, 100 μl of luciferase assay solution (Promega, # E6110) was added to each well. The plate was placed in the dark at room temperature for 10-15 minutes, blowed and aspirated 10 times, and 100 μl were pipetted to a 96 well white plate. The chemiluminescence signal values were read in a microplate reader (PE, Victor3), and the read data was processed using software.
The activity of the compounds of the present invention on agonizing MOR and affecting downstream cAMP levels was determined by the above test, and the EC50 values are shown in Table 1.1.
(In general: In a reporter assay the amount or activity of a reporter protein is the signal.)

The target in another assay is T3, hERG potassium channel (Homo sapiens, UniProt Q12809).
T3 construct: expressed in transfected cells; host or cells: HEK293
In words: Blocking of hERG potassium current, automatic patch clamp on HEK293-hERG cells. The procedure:
The blocking effect of the compounds of the present invention and the positive compound TRV-130 (Journal of Pharmacology and Experimental Therapeutics, Volume 344, Issue 3, Pages 708-717, 2013) on hERG potassium current was tested on a stable cell line transfected with hERG potassium channel using an automatic patch clamp.
HEK293-hERG stabilized cells were subcultured at a density of 1:4 in a MEM/EBSS medium (10% FBS, 400 μg/ml G418, 1% MEM nonessential amino acid solution (100×), 1% sodium pyruvate solution) for 48-72 hours, then the automatic patch clamp experiment was performed. The cells were digested with 0.25% trypsin on the day of the experiment, then the cells were collected by centrifugation and resuspended with extracellular fluid (140 mM NaCl, 4 mM KCl, 1 mM MgCl2, 2 mM CaCl2, 5 mM D-glucose monohydrate, 10 mM Hepes, pH 7.4, 298 mOsmol) into a cell suspension. The cell suspension was placed on the cell bank of the Patchliner instrument, and the cells were added to the chip (NPC-16) by the negative pressure controller of the Patchliner instrument, with negative pressure attracting individual cells to the small hole of the chip. After the whole cell model was formed, the instrument generated the hERG current according to the preset hERG current and voltage program, and then the instrument perfused the compound from low concentration to high concentration automatically. HEAK Patchmaster, HEAK EPC10 patch clamp amplifier (Nanion), Pathliner software, and a data analysis software provided by Pathcontrol HTsoftware were used to analyze the current of the compounds at different concentrations and the current of the blank control.
The blocking effect of the compounds of the present invention on hERG potassium current was determined by the above test, and the IC50 values are shown in Table 3.

[1] abbreviates: CHO-K1 OPRM1 β-Arrestin cells, 90 minutes, read-out: EC50 on the β-arrestin signaling pathway.
[2] abbreviates: HEK293/MOR/CRE cells, 5 h incubation, forskolin, read-out: EC50 on agonizing MOR receptor and affecting cAMP levels.

pEC50, pIC50: −log10 of the molar value. Where two headings read alike, the source gives them in different places.

T1 sequence (P35372 whole entry): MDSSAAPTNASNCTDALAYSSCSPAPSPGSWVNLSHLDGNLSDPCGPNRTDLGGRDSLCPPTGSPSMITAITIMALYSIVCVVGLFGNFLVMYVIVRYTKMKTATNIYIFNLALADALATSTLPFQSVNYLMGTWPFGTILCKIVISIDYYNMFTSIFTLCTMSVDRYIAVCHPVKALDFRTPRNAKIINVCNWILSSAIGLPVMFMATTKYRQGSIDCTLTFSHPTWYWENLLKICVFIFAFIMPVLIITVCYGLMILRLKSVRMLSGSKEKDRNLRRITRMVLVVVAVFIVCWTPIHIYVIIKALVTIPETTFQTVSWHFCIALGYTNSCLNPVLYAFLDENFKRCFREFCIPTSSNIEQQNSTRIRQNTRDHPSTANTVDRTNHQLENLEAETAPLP
T2 sequence (P35372 whole entry): as above
T3 sequence (Q12809 whole entry): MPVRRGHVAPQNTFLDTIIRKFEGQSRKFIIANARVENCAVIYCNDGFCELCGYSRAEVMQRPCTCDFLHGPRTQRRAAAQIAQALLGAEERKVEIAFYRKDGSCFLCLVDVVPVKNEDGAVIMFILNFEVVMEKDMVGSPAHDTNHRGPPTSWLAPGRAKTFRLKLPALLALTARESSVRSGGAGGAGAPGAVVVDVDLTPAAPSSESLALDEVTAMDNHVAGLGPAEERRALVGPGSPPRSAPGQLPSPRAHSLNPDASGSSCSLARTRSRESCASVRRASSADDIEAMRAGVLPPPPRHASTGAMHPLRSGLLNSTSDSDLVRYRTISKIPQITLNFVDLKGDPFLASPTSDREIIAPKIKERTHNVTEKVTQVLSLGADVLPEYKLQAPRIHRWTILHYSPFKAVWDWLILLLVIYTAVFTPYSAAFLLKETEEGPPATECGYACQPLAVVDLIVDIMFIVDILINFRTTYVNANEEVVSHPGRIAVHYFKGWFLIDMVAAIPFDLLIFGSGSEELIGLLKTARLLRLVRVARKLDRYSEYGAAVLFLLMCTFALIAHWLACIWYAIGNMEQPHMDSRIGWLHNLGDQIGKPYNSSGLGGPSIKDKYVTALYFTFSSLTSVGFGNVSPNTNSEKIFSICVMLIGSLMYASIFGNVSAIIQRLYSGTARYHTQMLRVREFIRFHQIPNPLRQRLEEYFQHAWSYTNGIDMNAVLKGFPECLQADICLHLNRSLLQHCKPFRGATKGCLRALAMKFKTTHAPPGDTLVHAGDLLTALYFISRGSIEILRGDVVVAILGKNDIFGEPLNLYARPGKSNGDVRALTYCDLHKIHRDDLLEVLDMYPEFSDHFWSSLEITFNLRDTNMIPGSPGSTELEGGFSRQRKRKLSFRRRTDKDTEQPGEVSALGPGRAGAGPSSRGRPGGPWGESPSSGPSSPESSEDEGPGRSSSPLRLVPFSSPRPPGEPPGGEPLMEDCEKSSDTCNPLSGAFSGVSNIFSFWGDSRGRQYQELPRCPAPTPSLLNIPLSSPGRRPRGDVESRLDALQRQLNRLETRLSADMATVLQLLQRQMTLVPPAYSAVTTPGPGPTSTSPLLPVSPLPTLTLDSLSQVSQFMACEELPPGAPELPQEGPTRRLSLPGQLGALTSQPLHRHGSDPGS

For `c1ccc([C@]2(CCN[C@H]3CCC4(OCCO4)c4ccccc43)CCOC3(CCCC3)C2)nc1` [Example 33, (S)-N-(2-((R)-9-(pyridin-2-yl)-6-oxaspiro[4.5]decan-9-yl)ethyl)-3,4-dihydro-2H-spiro[naphthalen-1,2′-[1,3]dioxolane]-4-amine], the Emax on MOR receptor was 27%.
Regarding `CO[C@@H]1CC[C@H](NCC[C@@]2(c3ccccn3)CCOC3(CCCC3)C2)c2ccccc21` [Example 30, (1S,4R)-4-methoxy-N-(2-((R)-9-(pyridin-2-yl)-6-oxaspiro[4.5]decan-9-yl)ethyl)-1,2,3,4-tetrahydronaphthalen-1-amine], at μ-opioid receptors (MOR), the pEC50 was 8.70 and the Emax was 126%.
Take `c1ccc([C@]2(CCN[C@H]3CCOc4ccccc43)CCOC3(CCCC3)C2)nc1` (single isomer, unassigned) [Example 5]: at μ-opioid receptors (MOR), the pEC50 was 8.30 and the Emax was 122%. At hERG potassium channel, this compound gave a pIC50 of 5.21.
In the case of `CCCO[C@H]1CC[C@H](NCC[C@@]2(c3ccccn3)CCOC3(CCCC3)C2)c2ccccc21` [Example 34, (1S,4S)-4-propoxy-N-(2-((R)-9-(pyridin-2-yl)-6-oxaspiro[4.5]decan-9-yl)ethyl)-1,2,3,4-tetrahydronaphthalen-1-amine], the pEC50 on MOR receptor (setting [1]) was 7.80. Besides, the Emax at MOR receptor was 10%.
Regarding `C=C1CC[C@H](NCC[C@@]2(c3ccccn3)CCOC3(CCCC3)C2)c2ccccc21` [Example 28, (S)-4-methylene-N-(2-((R)-9-(pyridin-2-yl)-6-oxaspiro[4.5]decan-9-yl)ethyl)-1,2,3,4-tetrahydronaphthalen-1-amine], on MOR receptor, the pEC50 is 7.82 and the Emax stood at 22%.
At hERG potassium channel, `COc1ccsc1CNCC[C@@]1(c2ccccn2)CCOC2(CCCC2)C1` [TRV-130, reference compound] gave a pIC50 of 5.80.
As for `N#CCC1CC[C@H](NCC[C@@]2(c3ccccn3)CCOC3(CCCC3)C2)c2ccccc21` (stereo partly drawn) [Example 32, 2-((4S)-4-((2-((R)-9-(pyridin-2-yl)-6-oxaspiro[4.5]decan-9-yl)ethyl)amino)-1,2,3,4-tetra hydronaphthalen-1-yl)acetonitrile], the pEC50 at μ-opioid receptors (MOR) (setting [2]) is 9.10. In addition, the Emax on μ-opioid receptors (MOR) is 133%.
`c1ccc([C@]2(CCN[C@H]3CCCc4ccccc43)CCOC3(CCCC3)C2)nc1` [Example 10, (S)-N-(2-((R)-9-(pyridin-2-yl)-6-oxaspiro[4.5]decan-9-yl)ethyl)-1,2,3,4-tetrahydronaphthalen-1-amine]: on μ-opioid receptors (MOR), the pEC50 was 8.40 and the Emax was 113%.
For `O[C@H]1Cc2ccccc2[C@@H]1NCCC1(c2ccccn2)CCOC2(CCCC2)C1` (stereo partly drawn) [Example 18, (1S,2S)-1-((2-(9-(pyridin-2-yl)-6-oxaspiro[4.5]decan-9-yl)ethyl)amino)-2,3-dihydro-1H-inden-2-ol], in that order: less than 5.00 and 4%.
For `CO[C@H]1Cc2ccccc2[C@@H]1NCC[C@@]1(c2ccccn2)CCOC2(CCCC2)C1` [Example 17, (1S,2S)-2-methoxy-N-(2-((R)-9-(pyridin-2-yl)-6-oxaspiro[4.5]decan-9-yl)ethyl)-2,3-dihydro-1H-inden-1-amine], in that order: less than 5.00 and 0%.
Turning to `CCN1CC[C@@H](NCC[C@@]2(c3ccccn3)CCOC3(CCCC3)C2)c2ccccc21` [Example 2, (R)-1-ethyl-N-(2-((R)-9-(pyridin-2-yl)-6-oxaspiro[4.5]decan-9-yl)ethyl)-1,2,3,4-tetrahydroquinolin-4-amine], the pEC50 on μ-opioid receptors (MOR) (setting [2]) and at MOR receptor (setting [1]) was less than 5.00 each time. Further, the Emax was found to be 0% at μ-opioid receptors (MOR) and 4% on MOR receptor.
As to `COC[C@@H]1CC[C@H](NCC[C@@]2(c3ccccn3)CCOC3(CCCC3)C2)c2ccccc21` [Example 23, (1S,4R)-4-(methoxymethyl)-N-(2-((R)-9-(pyridin-2-yl)-6-oxaspiro[4.5]decan-9-yl)ethyl)-1,2,3,4-tetrahydronaphthalen-1-amine], at μ-opioid receptors (MOR), the pEC50 is 8.30 and the Emax amounted to 120%.
For `Fc1ccc2c(c1)C(NCC[C@@]1(c3ccccn3)CCOC3(CCCC3)C1)CCO2` (stereo partly drawn) [Example 8, 6-fluoro-N-(2-((R)-9-(pyridin-2-yl)-6-oxaspiro[4.5]decan-9-yl)ethyl)chroman-4-amine], in that order: 8.52 and 114%.
For `c1ccc([C@]2(CCN[C@@H]3CCCc4ccccc43)CCOC3(CCCC3)C2)nc1` [Example 9, (R)-N-(2-((R)-9-(pyridin-2-yl)-6-oxaspiro[4.5]decan-9-yl)ethyl)-1,2,3,4-tetrahydronaphthalen-1-amine], in that order: less than 5.00 and 48%.
As to `CO[C@@H]1Cc2ccccc2[C@H]1NCC[C@@]1(c2ccccn2)CCOC2(CCCC2)C1` [Example 4, (1R,2R)-2-methoxy-N-(2-((R)-9-(pyridin-2-yl)-6-oxaspiro[4.5]decan-9-yl)ethyl)-2,3-dihydro-1H-inden-1-amine], on μ-opioid receptors (MOR), the pEC50 was 9.00 and the Emax was found to be 129%.
Taken in the same sequence, the figures for `c1ccc([C@]2(CCN[C@@H]3CCc4ccccc43)CCOC3(CCCC3)C2)nc1` [Example 15, (R)-N-(2-((R)-9-(pyridin-2-yl)-6-oxaspiro[4.5]decan-9-yl)ethyl)-2,3-dihydro-1H-inden-1-amine] were less than 5.00 and 0%.
Taken in the same sequence, the figures for `c1ccc([C@]2(CCN[C@@H]3CCOc4ccccc43)CCOC3(CCCC3)C2)nc1` [Example 7, (R)-N-(2-((R)-9-(pyridin-2-yl)-6-oxaspiro[4.5]decan-9-yl)ethyl)chroman-4-amine] were less than 5.00 and 0%.
For `N#CCO[C@H]1CC[C@H](NCC[C@@]2(c3ccccn3)CCOC3(CCCC3)C2)c2ccccc21` [Example 29, 2-(((1S,4S)-4-((2-((R)-9-(pyridin-2-yl)-6-oxaspiro[4.5]decan-9-yl)ethyl)amino)-1,2,3,4-tetrahydronaphthalen-1-yl)oxy)acetonitrile], the pEC50 on μ-opioid receptors (MOR) (setting [2]) was 8.15; on MOR receptor (setting [1]), 7.48. Moreover, the Emax on μ-opioid receptors (MOR) turned out to be 112%; at MOR receptor, 32%.

As a reminder, the Emax is the greatest response seen or fitted, relative to the assay's reference. Usually pEC50 stands for the EC50 on a negative log10 scale, so that one unit is a factor of ten. In general, pIC50 refers to the negative decadic logarithm of the IC50, by convention in mol/L. A low value points to a large IC50.
